Experimental data published in patent US7767240B2, “Microbiological control in poultry processing” (priority 2001, dated 2010).
Where “and” joins values, the source holds several entries; their conditions need not be identical. Equal entries are not always repeated.

Assays:
Escherichia coli = experiment: AOAC test method, kill of bacterial culture; assay type: cell-based; settings: for concentration required to achieve complete kill within 30 seconds: Escherichia coli, AOAC test
Experimental: One such series of tests involved determinations of microbiological control against Escherichia coli bacteria. Another set of tests involved determinations of microbiological control against Enterococcus faecium. In each case, comparative tests were carried out in the same manner utilizing the AOAC test method. Such test involves exposing a culture of the microorganism to various concentrations of a test solution prepared from an aqueous stock solution of the compound under test. At various time intervals the halogen in the test suspensions is chemically neutralized, and the amount of viable bacteria remaining is enumerated by plating onto nutrient agar and incubating for 2 days at 37° C. Results are expressed at the log10 colony forming units (CFU). The concentration of the compound required to achieve complete kill (i.e., no viable bacteria remain) within 30 seconds is determined in the test.
Table 43 summarizes the data obtained in the tests using respectively, 1,3-dibromo-5,5-dimethylhydantoin (DBDMH) and N,N′-bromochloro-5,5-dimethylhydantoin (BCDMH) and in which the microorganism in each case was Escherichia coli. It can be seen that 1,3-dibromo-5,5-dimethylhydantoin passed the test at one milligram of bromine, as […] per liter of water, as evidenced by the complete kill within 30 seconds, whereas 1,3-bromochloro-5,5-dimethylhydantoin required two milligrams of bromine, as Br2, per liter of water to achieve complete kill within 30 seconds.

[1] = test system: Pseudomonas aeruginosa (ATCC 15442) biofilm; experiment: MBEC biofilm eradication test (Calgary biofilm device); assay type: cell-based; settings: one-hour biocide contact time; for MBEC (minimum biofilm eradication concentration): individual determinations
Description: Table 45 summarizes test results performed at MBEC Biofilm Technologies, Inc., Calgary, Canada on the effectiveness of various biocides on biofilm removal. The test procedure, developed at the University of Calgary, utilizes a device which allows the growth of 96 identical biofilms under carefully controlled conditions. The device consists of a two-part vessel comprised of an upper plate containing 96 pegs that seals against a bottom plate. The bottom plate can consist of either a trough (for biofilm growth) or a standard 96-well plate (for biocide challenge). The biofilms develop on the 96 pegs. The device has been used as a general method for evaluating the efficacy of antibiotics and biocides towards biofilms. See in this connection H. Ceri, et al., “The MBEC Test: A New In Vitro Assay Allowing Rapid Screening for Antibiotic Sensitivity of Biofilm”, Proceedings of the ASM, 1998, 89, 525; Ceri, et al., “Antifungal and Biocide Susceptibility testing of Candida Biofilms using the MBEC Device”, Proceedings of the Interscience Conference on Antimicrobial Agents and Chemotherapy, 1998, 38, 495; and H. Ceri, et al., “The Calgary Biofilm Device: A New Technology for the Rapid Determination of Antibiotic Susceptibility of Bacterial Biofilms”, Journal of Clinical Microbiology, 1999, 37, 1771-1776.
Six biocide systems were evaluated using the above test procedure and test equipment. Five of these systems were oxidizing biocides, viz., chlorine (from NaOCl), halogen (from NaOCl+NaBr), halogen (from BCDMH), bromine (from DBDMH), and chlorine (from trichloroisocyanuric acid), all expressed as bromine as Br2 in mg/L, so that all test results were placed on the same basis. The sixth biocide was glutaraldehyde, a non-oxidizing biocide.
These biocide systems were used to challenge biofilms of Pseudomonas aeruginosa (ATCC 15442). This is a Gram (−) bacterium which is ubiquitous in microbiological slimes found in many water systems. See in this connection J. W. Costerton and H. Anwar, “Pseudomonas aeruginosa: The Microbe and Pathogen”, in Pseudomonas aeruginosa Infections and Treatment, A. L. Baltch and R. P. Smith editors, Marcel Dekker publishers, New York, 1994. In the field of poultry processing, S. Notermans, J. Dormans, and G. C. Mead, Biofouling, 1991, Vol. 5, pages 21-36, report observation of biofilms in poultry slaughter houses by use of scanning electron microscopy.
In Table 45 the MBEC (minimum biofilm eradication concentration) results presented are for the one-hour biocide contact time used in the test. The values given for the halogen containing biocides are expressed in terms of mg/L of bromine as Br2. The data on the glutaraldehyde is in terms of mg/L as active ingredient. […] In fact, only slightly more than one-half as much bromine from DBDMH was required to remove the biofilm as compared to the total halogen, expressed as Br2, that was required from BCDMH.

[2] = assay type: physicochemical
Description: Another mode of applying the microbiocidally-effective amounts of solid-state microbiocides of these embodiments of the invention is to cause the microbiocide to be leached into water streams passing through conduits and into tanks or other washing devices utilized in the processing of the poultry. For example, suitable solid forms of the microbiocide, preferably a bromine-based microbiocide, such as tablets, briquettes, pellets, nuggets, or granules are placed in suitable feeding devices through which a stream of water is passed. The passage of the water through the bed of the microbiocide results in the stream continuously dissolving small quantities of the microbiocide to thereby provide microbiocidally effective amounts of the microbiocide in the water. 1,3-Dibromo-5,5-dimethylhydantoin is especially preferred for use in this mode of application because of its relatively low solubility and thus relatively slow rate of dissolution in water at ambient room temperatures. This translates into relatively long periods of use before need of refilling the device holding the solids.

[3] = 0.5 mg/L as Br2, contact time 30 sec
[4] = 0.5 mg/L as Br2, contact time 1 min
[5] = 0.5 mg/L as Br2, contact time 2 min
[6] = 0.5 mg/L as Br2, contact time 3 min
[7] = 0.5 mg/L as Br2, contact time 4 min
[8] = 0.5 mg/L as Br2, contact time 5 min
[9] = 0.5 mg/L as Br2, contact time 10 min
[10] = 1.0 mg/L as Br2, contact time 30 sec
[11] = 1.0 mg/L as Br2, contact time 1 min
[12] = 1.0 mg/L as Br2, contact time 2 min
[13] = 1.0 mg/L as Br2, contact time 3 min
[14] = 1.0 mg/L as Br2, contact time 4 min
[15] = 1.0 mg/L as Br2, contact time 5 min
[16] = 1.0 mg/L as Br2, contact time 10 min
[17] = 2.0 mg/L as Br2, contact time 30 sec
[18] = 2.0 mg/L as Br2, contact time 1 min
[19] = 2.0 mg/L as Br2, contact time 2 min
[20] = 2.0 mg/L as Br2, contact time 3 min
[21] = 2.0 mg/L as Br2, contact time 4 min
[22] = 2.0 mg/L as Br2, contact time 5 min
[23] = 2.0 mg/L as Br2, contact time 10 min

SMILES | Log10 CFU Recovered (Escherichia coli; [3]) | Log10 CFU Recovered (Escherichia coli; [4]) | Log10 CFU Recovered (Escherichia coli; [5]) | Log10 CFU Recovered (Escherichia coli; [6]) | Log10 CFU Recovered (Escherichia coli; [7]) | Log10 CFU Recovered (Escherichia coli; [8]) | Log10 CFU Recovered (Escherichia coli; [9]) | Log10 CFU Recovered (Escherichia coli; [10]) | Log10 CFU Recovered (Escherichia coli; [11]) | Log10 CFU Recovered (Escherichia coli; [12]) | Log10 CFU Recovered (Escherichia coli; [13]) | Log10 CFU Recovered (Escherichia coli; [14]) | Log10 CFU Recovered (Escherichia coli; [15]) | Log10 CFU Recovered (Escherichia coli; [16]) | Log10 CFU Recovered (Escherichia coli; [17]) | Log10 CFU Recovered (Escherichia coli; [18]) | Log10 CFU Recovered (Escherichia coli; [19]) | Log10 CFU Recovered (Escherichia coli; [20]) | Log10 CFU Recovered (Escherichia coli; [21]) | Log10 CFU Recovered (Escherichia coli; [22]) | further results
CC1(C)C(=O)N(Br)C(=O)N1Br [DBDMH, 1,3-dibromo-5,5-dimethylhydantoin] | >4.48 Log10 CFU | 1.70 Log10 CFU | 0 Log10 CFU | 0 Log10 CFU | 0 Log10 CFU | 0 Log10 CFU | 0 Log10 CFU | 0 Log10 CFU | 0 Log10 CFU | 0 Log10 CFU | 0 Log10 CFU | 0 Log10 CFU | 0 Log10 CFU | 0 Log10 CFU | 0 Log10 CFU | 0 Log10 CFU | 0 Log10 CFU | 0 Log10 CFU | 0 Log10 CFU | 0 Log10 CFU | Log10 CFU Recovered (Escherichia coli; [23]): 0 Log10 CFU; concentration required to achieve complete kill within 30 seconds (Escherichia coli): one; MBEC, avg. [1]: 1.4 mg/L of bromine as Br2; MBEC (minimum biofilm eradication concentration) [1]: 1.4 mg/L of bromine as Br2 and 1.4, 1.4 mg/L of bromine as Br2; solubility in water [2]: 405 ppm expressed as Cl2
CC1(C)C(=O)N(Cl)C(=O)N1Br [BCDMH, N,N′-bromochloro-5,5-dimethylhydantoin] | >4.48 Log10 CFU | 4.46 Log10 CFU | 1.65 Log10 CFU | 0 Log10 CFU | 0 Log10 CFU | 0 Log10 CFU | 0 Log10 CFU | >4.48 Log10 CFU | 0.7 Log10 CFU | 0 Log10 CFU | 0 Log10 CFU | 0 Log10 CFU | 0 Log10 CFU | 0 Log10 CFU | 0 Log10 CFU | 0 Log10 CFU | 0 Log10 CFU | 0 Log10 CFU | 0 Log10 CFU | 0 Log10 CFU | Log10 CFU Recovered (Escherichia coli; [23]): 0 Log10 CFU; concentration required to achieve complete kill within 30 seconds (Escherichia coli): two; MBEC, avg. [1]: 2.5 mg/L of bromine as Br2; MBEC (minimum biofilm eradication concentration) [1]: 2.5, 2.5 mg/L of bromine as Br2; solubility in water [2]: 890 ppm expressed as Cl2
